This note sets out measurements from patent publication US20250228239A1, “MOLECULES HAVING PESTICIDAL UTILITY, AND INTERMEDIATES, COMPOSITIONS, AND PROCESSES, RELATED THERETO” (priority 2024, published 2025).

Read-outs that look alike come from different tables or passages of the source.

What all share (type): in vivo
Experiment [1] has as its system Yellow Fever Mosquito (Aedes aegypti, AEDSAE). The following applies: for YFM rating: Table ABC / ABC-DP rating. An outline of the steps: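 Compounds from DMSO master plates (4000 ppm stock) diluted in 90:10 water/acetone, then dispensed into six replicate plates and infested with ~1-day-old Aedes aegypti larvae in liver-powder water. Held covered at room temperature for 3 days; each well scored for larval mortality and graded on a rating scale.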

Experiment [2] relates to Cabbage Looper (Trichoplusia ni, TRIPNI). In words: Bioassays on Cabbage Looper (CL), 128-well diet tray assay. The following applies: Trichoplusia ni. An outline of the steps:
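Second-instar larvae (1–5 per well) placed on artificial diet surface-treated with 50 μg/cm^2 test molecule applied in 90:10 acetone-water and dried. Held at 25° C., 14:10 light-dark, for five to seven days. Percent mortality scored per well and averaged over eight wells.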

In experiment [3] the test system is Beet Armyworm (Spodoptera exigua, LAPHEG). In words: Bioassays on Beet Armyworm (BAW), 128-well diet tray assay. The following applies: Spodoptera exigua. The method in brief:
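Second-instar larvae, one to five per well, were placed on artificial diet surface-treated with 50 μg/cm^2 compound in 90:10 acetone-water, eight wells per treatment. Trays were held 5–7 days at 25 °C, 14:10 light-dark. Percent mortality per well was averaged over eight wells.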

Setting [4] is: Yellow Fever Mosquito, rating class.
The mark [5] stands for this setting: Cabbage Looper, rating class, read-out: CL.
Where [6] appears, read: Beet Armyworm, rating class, read-out: BAW.
[7] abbreviates: Table ABC: Biological Results, species YFM.
Setting [8] is: Table ABC: Biological Results, species CL, read-out: CL.
Setting [9] is: Table ABC: Biological Results, species BAW, read-out: BAW.
Where [10] appears, read: Cabbage Looper, Table ABC / ABC-DP rating, read-out: CL rating.
Setting [11] is: Beet Armyworm, Table ABC / ABC-DP rating, read-out: BAW rating.

For `O=C(Nc1cc(NC(=O)C(F)F)c(F)cc1F)c1cc(NC(=O)[C@H]2[C@H](c3cc(Cl)c(Cl)c(Cl)c3)C2(Cl)Cl)ccc1F` [F1552, 5-((1R,3R)-2,2-Dichloro-3-(3,4,5-trichlorophenyl)cyclopropane-1-carboxamido)-N-(5-(2,2-difluoroacetamido)-2,4-difluorophenyl)-2-fluorobenzamide], the YFM entry in experiment [1] (setting [4]) is on record as “A (80–100)”. The pest or weed control at 50 µg/cm2 in experiment [2] (setting [5]) and in experiment [3] (setting [6]) was 50 to 100% each time.

Take `CC1(C)C(=O)CC1C(=O)Nc1c(F)ccc(NC(=O)c2cc(NC(=O)[C@H]3[C@H](c4ccc(F)c(C(F)(F)F)c4)C3(Cl)Cl)ccc2Cl)c1F` (stereo partly drawn) [F1507, 2-Chloro-5-((1R,3R)-2,2-dichloro-3-(4-fluoro-3-(trifluoromethyl)phenyl)cyclopropane-1-carboxamido)-N-(3-(2,2-dimethyl-3-oxocyclobutane-1-carboxamido)-2,4-difluorophenyl)benzamide]: in experiment [1] (setting [4]), the YFM result was “A (80–100)”. Moreover, the pest or weed control at 50 µg/cm2 in experiment [2] (setting [5]) and in experiment [3] (setting [6]) was 50 to 100% throughout.

Regarding `O=C(Nc1c(F)ccc(NC(=O)c2cc(NC(=O)[C@H]3[C@H](c4ccc(Cl)c(Cl)c4)C3(Cl)Cl)ccc2Cl)c1F)c1ccccc1` [F1253, N-(3-Benzamido-2,4-difluorophenyl)-2-chloro-5-((1R,3R)-2,2-dichloro-3-(3,4-dichlorophenyl)cyclopropane-1-carboxamido)benzamide], the YFM entry in experiment [1] (setting [7]) is on record as “A (80–100)”. Also, the pest or weed control at 50 µg/cm2 in experiment [2] (setting [8]) and in experiment [3] (setting [9]) was 50 to 100% each time.

With `O=C(Nc1ccc(F)cc1F)c1cc(NC(=O)[C@H]2[C@@H](c3cc(C(F)(F)F)cc(Cl)c3F)C2(Cl)Cl)ccc1Cl` (relative stereo) [F1051, cis-2-Chloro-5-(2,2-dichloro-3-(3-chloro-2-fluoro-5-(trifluoromethyl)phenyl)cyclopropane-1-carboxamido)-N-(2,4-difluorophenyl)benzamide], the YFM entry in experiment [1] (setting [7]) is given as “A (80–100)”. In addition, the pest or weed control at 50 µg/cm2 in experiment [2] (setting [8]) and in experiment [3] (setting [9]) was 50 to 100% throughout.

As for `O=C(Nc1ccc(F)cc1)c1cc(NC(=O)[C@H]2[C@H](c3cc(Cl)c(Cl)c(Br)c3)C2(Cl)Cl)ccc1Cl` (relative stereo) [F1005, trans-5-(3-(3-bromo-4,5-dichlorophenyl)-2,2-dichlorocyclopropane-1-carboxamido)-2-chloro-N-(4-fluorophenyl)benzamide], the YFM result in experiment [1] (setting [7]) was “A (80–100)”. Further, the pest or weed control at 50 µg/cm2 in experiment [2] (setting [8]) and in experiment [3] (setting [9]) was 50 to 100% each time.

`CCC(F)(F)CNC(=O)c1cc(NC(=O)[C@H]2[C@H](c3cc(Cl)cc(Cl)c3)C2(Cl)Cl)ccc1Cl` (relative stereo) [F2086, trans-2-Chloro-5-(2,2-dichloro-3-(3,5-dichlorophenyl)cyclopropane-1-carboxamido)-N-(2,2-difluorobutyl)benzamide]: the YFM rating result in experiment [1] (Yellow Fever Mosquito) is recorded as “A (80–100)”. The pest or weed control at 50 µg/cm2 in experiment [2] (setting [10]) and in experiment [3] (setting [11]) was 50 to 100% throughout.

On to `O=C(NCC(F)(F)C(F)(F)F)c1cc(NC(=O)[C@H]2[C@H](c3ccc(F)c(C(F)(F)F)c3)C2(Cl)Cl)c(F)cc1Cl` [F2085, 2-Chloro-5-((1R,3R)-2,2-dichloro-3-(4-fluoro-3-(trifluoromethyl)phenyl)cyclopropane-1-carboxamido)-4-fluoro-N-(2,2,3,3,3-pentafluoropropyl)benzamide], for which, in experiment [1] (Yellow Fever Mosquito), the YFM rating result is listed as “A (80–100)”. Also, the pest or weed control at 50 µg/cm2 in experiment [2] (setting [10]) and in experiment [3] (setting [11]) was 50 to 100% throughout.

For the compound `CC(=O)Nc1ccc(F)c(NC(=O)c2cc(NC(=O)[C@H]3[C@H](c4ccc(F)c(C(F)(F)F)c4)C3(Cl)Cl)ccc2F)c1F` [F1562, N-(3-Acetamido-2,6-difluorophenyl)-5-((1R,3R)-2,2-dichloro-3-(4-fluoro-3-(trifluoromethyl)phenyl)cyclopropane-1-carboxamido)-2-fluorobenzamide], the YFM result in experiment [1] (setting [4]) is on record as “A (80–100)”. For the same compound, the pest or weed control at 50 µg/cm2 in experiment [2] (setting [5]) and in experiment [3] (setting [6]) was 50 to 100% in each case.

Regarding `O=C(NCCC(F)(F)F)c1c(F)ccc(NC(=O)[C@H]2[C@H](c3ccc(F)c(Cl)c3)C2(Cl)Cl)c1F` (relative stereo) [F2023, trans-3-(2,2-Dichloro-3-(3-chloro-4-fluorophenyl)cyclopropane-1-carboxamido)-2,6-difluoro-N-(3,3,3-trifluoropropyl)benzamide], the YFM rating result in experiment [1] (Yellow Fever Mosquito) is listed as “A (80–100)”. Moreover, the pest or weed control at 50 µg/cm2 in experiment [2] (setting [10]) and in experiment [3] (setting [11]) was 50 to 100% in each case.

As to `O=C(COC(F)(F)F)Nc1c(F)ccc(NC(=O)c2cc(NC(=O)[C@H]3[C@H](c4cccc(C(F)(F)F)c4)C3(Cl)Cl)ccc2Cl)c1F` [F1774, 2-Chloro-5-((1R,3R)-2,2-dichloro-3-(3-(trifluoromethyl)phenyl)cyclopropane-1-carboxamido)-N-(2,4-difluoro-3-(2-(trifluoromethoxy)acetamido)phenyl)benzamide], in experiment [1] (Yellow Fever Mosquito), the YFM rating result is given as “A (80–100)”. Also, the pest or weed control at 50 µg/cm2 in experiment [2] (setting [10]) and in experiment [3] (setting [11]) was 50 to 100% throughout.

With `O=C(Nc1cc(NC(=O)C(F)F)c(F)cc1F)c1cc(NC(=O)[C@H]2[C@H](c3ccc(F)c(C(F)(F)F)c3)C2(Cl)Cl)ccc1F` [F1558, 5-((1R,3R)-2,2-Dichloro-3-(4-fluoro-3-(trifluoromethyl)phenyl)cyclopropane-1-carboxamido)-N-(5-(2,2-difluoroacetamido)-2,4-difluorophenyl)-2-fluorobenzamide], the YFM result in experiment [1] (setting [4]) was “A (80–100)”. Moreover, the pest or weed control at 50 µg/cm2 in experiment [2] (setting [5]) and in experiment [3] (setting [6]) was 50 to 100% throughout.

As for `Nc1cc(NC(=O)c2cc(NC(=O)[C@H]3[C@H](c4ccc(F)c(Cl)c4)C3(Cl)Cl)ccc2Cl)ccc1Cl` (relative stereo) [F1365, trans-N-(3-Amino-4-chlorophenyl)-2-chloro-5-(2,2-dichloro-3-(3-chloro-4-fluorophenyl)cyclopropane-1-carboxamido)benzamide], in experiment [1] (setting [7]), the YFM result is listed as “A (80–100)”. Moreover, the pest or weed control at 50 µg/cm2 in experiment [2] (setting [8]) and in experiment [3] (setting [9]) was 50 to 100% each time.

Turning to `CC(F)(F)CNC(=O)c1cc(NC(=O)C2C(c3cc(Cl)cc(Cl)c3)C2(Cl)Cl)cc(F)c1Cl` (stereo not drawn) [F2087], the YFM rating result in experiment [1] (Yellow Fever Mosquito) is “A (80–100)”. Besides, the pest or weed control at 50 µg/cm2 in experiment [2] (setting [10]) and in experiment [3] (setting [11]) was 50 to 100% throughout.

For the compound `CC(C)(C)CCCC(=O)Nc1c(F)ccc(NC(=O)c2cc(NC(=O)[C@H]3[C@H](c4ccc(F)c(C(F)(F)F)c4)C3(Cl)Cl)ccc2Cl)c1F` [F1856, 2-Chloro-5-((1R,3R)-2,2-dichloro-3-(4-fluoro-3-(trifluoromethyl)phenyl)cyclopropane-1-carboxamido)-N-(3-(5,5-dimethylhexanamido)-2,4-difluorophenyl)benzamide], the YFM rating entry in experiment [1] (Yellow Fever Mosquito) is listed as “B (More than 0 – Less than 80)”. The pest or weed control at 50 µg/cm2 in experiment [2] (setting [10]) and in experiment [3] (setting [11]) was 50 to 100% each time.

`O=C(Nc1cc(Cl)c(NC(=O)C(F)(F)F)c(Cl)c1)c1cc(NC(=O)[C@H]2[C@H](c3ccc(F)c(Cl)c3)C2(Cl)Cl)ccc1Cl` (relative stereo) [F1368, trans-2-Chloro-5-(2,2-dichloro-3-(3-chloro-4-fluorophenyl)cyclopropane-1-carboxamido)-N-(3,5-dichloro-4-(2,2,2-trifluoroacetamido)phenyl)benzamide]: the YFM entry in experiment [1] (setting [7]) is recorded as “A (80–100)”. The pest or weed control at 50 µg/cm2 in experiment [2] (setting [8]) and in experiment [3] (setting [9]) was 50 to 100% in each case.

Consider `CC(=O)NCCCCNC(=O)c1cc(NC(=O)[C@H]2[C@H](c3cc(Cl)cc(Cl)c3)C2(Cl)Cl)ccc1Cl` (relative stereo) [F2068, trans-N-(4-Acetamidobutyl)-2-chloro-5-(2,2-dichloro-3-(3,5-dichlorophenyl)cyclopropane-1-carboxamido)benzamide], for which, in experiment [1] (Yellow Fever Mosquito), the YFM rating result is “A (80–100)”. Moreover, the pest or weed control at 50 µg/cm2 in experiment [2] (setting [10]) and in experiment [3] (setting [11]) was 50 to 100% in each case.

`O=C(Nc1ccc(F)cc1F)c1cc(NC(=O)[C@H]2[C@@H](c3ccc(F)c(Cl)c3F)C2(Cl)Cl)ccc1Cl` (relative stereo) [F1033, cis-2-Chloro-5-(2,2-dichloro-3-(3-chloro-2,4-difluorophenyl)cyclopropane-1-carboxamido)-N-(2,4-difluorophenyl)benzamide]: the YFM result in experiment [1] (setting [7]) was “A (80–100)”. Also, the pest or weed control at 50 µg/cm2 in experiment [2] (setting [8]) and in experiment [3] (setting [9]) was 50 to 100% each time.

As for `C=Cc1cc(NC(=O)c2cc(NC(=O)[C@H]3[C@H](c4cc(Cl)cc(Cl)c4)C3(Cl)Cl)ccc2Cl)cc(F)c1F` (relative stereo) [F1317, trans-2-Chloro-5-(2,2-dichloro-3-(3,5-dichlorophenyl)cyclopropane-1-carboxamido)-N-(3,4-difluoro-5-vinylphenyl)benzamide], in experiment [1] (setting [7]), the YFM result is on record as “A (80–100)”. Further, the pest or weed control at 50 µg/cm2 in experiment [2] (setting [8]) and in experiment [3] (setting [9]) was 50 to 100% in each case.
